According to US12116358B2, “Substituted indoles and methods of use thereof” (EPIZYME, INC., priority 2018, dated 2024):
Read-outs that look alike come from different tables or passages of the source.

Tests used:
H3K36me3 in A549 cells = assay: In-Cell Western (ICW) assay of SETD2 inhibitors (A549 assay); format: cell-based, human; details: A549 cells, read-out: SETD2 A549
Summary of the method: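 H3K36me3 In-Cell Western: cells exposed to compound for 3 days at 4,000 cells/well, 37° C. DRAQ5 (1:1000) marked cell number, with 700/800-channel Licor read-out.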

KMS-34 cells = assay: 14 day KMS-34 long term proliferation (LTP) assay; details: read-out: LTP Day 14 Abs IC50
Experimental: 14 Day KMS-34 Long Term Proliferation (LTP) Assay
Incubate plates for 96 hrs.
The final concentration is 1 μm.
To calculate growth for days 4, 7, 11, and 14:
1. Calculate the split factor for day 4 to 7, day 7 to 11, and day 11-14 The split factor is the viable cells/mL on Day X (either 4, 7, or 11) divided by the density the cells are being split back to.
2. For growth of cells from day 4 to 7, multiply the day 7 viable cells/mL density by the split factor from day 4.
4. For growth of cells from Day 11 to 14, multiply the Day 14 viable cells/mL density by the days 4, 7, and 11 split factors.
5. Plot growth on semi-log chart (viable cells/mL on Y axis, in log, and days on X axis).
From 5 mM to 0.25 μm. […] Mix well by pipetting up and down.

SETD2(1434-1711) = target: T1, SETD2(1434-1711) (Homo sapiens, UniProt Q9BYW2); assay: SETD2 (1434-1711) assay; format: biochemical; details: read-out: SETD2 (1434-1711)
T1 construct: SETD2 (1434-1711) Assay; catalogue N/A
T1 sequence (Q9BYW2 1434-1711): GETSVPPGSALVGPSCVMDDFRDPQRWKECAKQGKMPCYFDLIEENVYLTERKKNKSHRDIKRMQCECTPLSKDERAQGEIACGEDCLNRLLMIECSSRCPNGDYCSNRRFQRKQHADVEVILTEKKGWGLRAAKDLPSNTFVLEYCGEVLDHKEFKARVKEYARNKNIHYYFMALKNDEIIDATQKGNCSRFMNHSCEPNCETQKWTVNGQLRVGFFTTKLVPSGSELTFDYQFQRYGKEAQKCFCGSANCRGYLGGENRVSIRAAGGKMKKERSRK

SMILES	IC50 (H3K36me3 in A549 cells) [µM]	IC50 (KMS-34 cells; KMS-34 cells, day 14) [µM]	IC50 (SETD2(1434-1711)) [µM]	IC50 (H3K36me3 in A549 cells; Homo sapiens) [µM]	IC50 (KMS-34 cells; Homo sapiens, KMS-34, 336 h) [µM]
CC(=O)N1CCN(c2cc(F)cc(NC(=O)c3cc4c(F)ccc(C)c4[nH]3)c2)CC1 [compound 7]	0.04	0.06			
Cc1ccc(F)c2cc(C(=O)Nc3cc(F)cc(N4CCC(N5CCOCC5)C4)c3)[nH]c12 (centres unmarked) [compound 11]	0.04	0.09	0.006		
Cc1ccc(F)c2cc(C(=O)Nc3cc(Cl)cc(N4CCC(N5CCOCC5)C4)c3)[nH]c12 (centres unmarked) [compound 22]	0.06	0.11	0.01		
CC(=O)N1CCN(c2cc(Cl)cc(NC(=O)c3cc4c(F)ccc(C)c4[nH]3)c2)CC1 [compound 31]	0.08	0.13	0.01		
CC(=O)N1CCN(c2cccc(NC(=O)c3cc4c(F)ccc(C)c4[nH]3)c2)CC1C (centres unmarked) [compound 32]	0.08	0.11	0.02		
CC(=O)N1CCN(c2cccc(NC(=O)c3cc4c(F)ccc(C)c4[nH]3)c2)CC1 [compound 34]	0.08	0.25			
Cc1ccc(F)c2cc(C(=O)Nc3cccc(-c4cncnc4)c3)[nH]c12 [compound 64]	0.1	0.38	0.06		
Cc1nnc(-c2cccc(NC(=O)c3cc4c(F)ccc(C)c4[nH]3)c2)s1 [compound 65]	0.1	0.28	0.02		
Cc1ccc(F)c2cc(C(=O)Nc3cccc(N4CCOC4=O)c3)[nH]c12 [compound 66]			0.03	0.2	0.42
Cc1ccc(F)c2cc(C(=O)Nc3cccc(N4CCC(N5CCOCC5)CC4)c3)[nH]c12 [compound 76]	0.2	0.36	0.03		
Cc1ccc(F)c2cc(C(=O)Nc3cccc(N4CCOC(CO)C4)c3)[nH]c12 (centres unmarked) [compound 115]	0.2	0.26	0.05		
Cc1ccc(F)c2cc(C(=O)Nc3cccc4cnccc34)[nH]c12 [compound 134]	0.3	0.8	0.06		
Cc1ccc(F)c2cc(C(=O)Nc3cccc(-c4cnn(C)c4)c3)[nH]c12 [compound 151]			0.08	0.3	0.58
Cc1ccc(F)c2cc(C(=O)Nc3cccc(-n4ccnc4)c3)[nH]c12 [compound 221]			0.1	0.5	0.93
CC(=O)N1CCN(C2CCCC(NC(=O)c3cc4c(F)ccc(C)c4[nH]3)C2)CC1 (centres unmarked) [compound 359]	> 2	7.8			
CC(=O)N1CCN(C2CCCC(NC(=O)c3cc4c(F)ccc(C)c4[nH]3)C2)CC1 (centres unmarked) [compound 372]	> 2	10			
CC(=O)N1CCN(C2CCCC(NC(=O)c3cc4c(F)ccc(C)c4[nH]3)C2)CC1 (centres unmarked) [compound 373]	> 2	10			
CC(=O)N1CCN(c2cccc(NC(=O)c3cc4cccc(C5CC5)c4[nH]3)c2)CC1 [compound 509]			22.4	15.4	2.6
Cc1cccc2cc(C(=O)NC(C)c3ccccc3Cl)[nH]c12 (centres unmarked) [compound 1156]	19.7		2.1		
Cc1ccc(F)c2cc(C(=O)Nc3cc(Cl)cc(N4CCC(CCCN5CCCC5)CC4)c3)[nH]c12 [compound 1158]	0.9		0.006		
COCC(=O)N(C)C1CCN(C2CCCC(NC(=O)c3cc4c(F)ccc(C)c4[nH]3)C2)C1 (centres unmarked) [compound 1160]	> 2		4.3		

SMILES	IC50 (H3K36me3 in A549 cells) [µM]	IC50 (KMS-34 cells; KMS-34 cells, day 14) [µM]	IC50 (SETD2(1434-1711)) [µM]	IC50 (H3K36me3 in A549 cells; Homo sapiens) [µM]	IC50 (KMS-34 cells; Homo sapiens, KMS-34, 336 h) [µM]
CC(=O)N1C(C)CN(C2CCCC(NC(=O)c3cc4c(F)ccc(C)c4[nH]3)C2)CC1C (centres unmarked) [compound 1162]	0.2		0.07		
CC(=O)N1C(C)CN(C2CCCC(NC(=O)c3cc4c(F)ccc(C)c4[nH]3)C2)CC1C (centres unmarked) [compound 1163]	> 2		1.6		
CCC(=O)N1CCN(C2CCCC(NC(=O)c3cc4c(F)ccc(C)c4[nH]3)C2)CC1C(F)(F)F (centres unmarked) [compound 1164]	> 2		2.1		
Cc1ccc(F)c2cc(C(=O)NC3CCCC(N4CCn5c(nccc5=O)C4)C3)[nH]c12 (centres unmarked) [compound 1165]	> 2		3.5		
Cc1ccc(F)c2cc(C(=O)NC3CCCC(N4CCn5c(c[nH]c5=O)C4)C3)[nH]c12 (centres unmarked) [compound 1166]	> 2		1		
CCC(=O)N1CCN(C2CCCC(NC(=O)c3cc4c(F)ccc(C)c4[nH]3)C2)CC1C(F)(F)F (centres unmarked) [compound 1167]	0.06		0.02		
CCC(=O)N1CCN(C2CCCC(NC(=O)c3cc4c(F)ccc(C)c4[nH]3)C2)CC1C(F)(F)F (centres unmarked) [compound 1168]	> 2		1.3		
CNC(=C[N+](=O)[O-])N1CCN(C2CCCC(NC(=O)c3cc4c(F)ccc(C)c4[nH]3)C2)CC1 (centres unmarked) [compound 1169]	> 2		0.9		
Cc1ccc(F)c2cc(C(=O)NC3CCCC(N4CCN(C(=O)NC5CCOCC5)CC4)C3)[nH]c12 (centres unmarked) [compound 1170]	> 2		1.8		
Cc1ccc(F)c2cc(C(=O)NC3CCCC(N4CCN(C(=O)C(C)C)C(C(F)(F)F)C4)C3)[nH]c12 (centres unmarked) [compound 1171]	0.06		0.03		
Cc1ccc(F)c2cc(C(=O)NC3CCCC(N4CCN(C(=O)C(C)C)C(C(F)(F)F)C4)C3)[nH]c12 (centres unmarked) [compound 1172]	> 2		3.1		
Cc1ccc(F)c2cc(C(=O)NC3CCCC(N4CCN(C(=O)CO)C(C(F)(F)F)C4)C3)[nH]c12 (centres unmarked) [compound 1173]	0.03		0.04		
Cc1ccc(F)c2cc(C(=O)NC3CCCC(N4CCN(C(=O)CO)C(C(F)(F)F)C4)C3)[nH]c12 (centres unmarked) [compound 1174]	> 2		4.8		
Cc1ccc(F)c2cc(C(=O)NC3CCCC(N4CCN(C(=O)C(C)C)C(C(F)(F)F)C4)C3)[nH]c12 (centres unmarked) [compound 1175]	> 2		8.4		
Cc1ccc(F)c2cc(C(=O)NC3CCCC(N4CCN(C(=O)CO)C(C(F)(F)F)C4)C3)[nH]c12 (centres unmarked) [compound 1176]	> 2		2.9		
CC(=O)N1CC2CN(C3CCCC(NC(=O)c4cc5c(F)ccc(C)c5[nH]4)C3)CC2C1 (centres unmarked) [compound 1177]	0.3		0.03		
CC(=O)N1CC2CN(C3CCCC(NC(=O)c4cc5c(F)ccc(C)c5[nH]4)C3)CC2C1 (centres unmarked) [compound 1178]	> 2		3.9		
Cc1ccc(F)c2cc(C(=O)NC3CCCC(N4CCn5c(cn(C)c5=O)C4)C3)[nH]c12 (centres unmarked) [compound 1179]	0.8		0.5		
Cc1ccc(F)c2cc(C(=O)N[C@H]3CCC[C@@H](C4=NNC(=O)CN4)C3)[nH]c12 [compound 1188]			0.2	1.8	
CC(=O)N1[C@H](C)CN([C@@H]2CCC[C@@H](NC(=O)c3cc4c(F)ccc(C)c4[nH]3)C2)C[C@H]1C [compound 1193]			0.6	> 2	
